# Results as given in ChEMBL document CHEMBL3046252, “Synthesis and herbicidal potential of substituted aurones” (2012).
# Key:
# Assay type in all cases: functional
# [1] = system: Echinochloa crus-galli; assay: Herbicidal activity against Echinochloa crus-galli (barnyard grass) plants assessed as inhibition of seedling growth at 1000 ug/ml after 65 hr by barnyard cup test; settings: read-out: GI
# [2] = system: Echinochloa crus-galli; assay: Herbicidal activity against Echinochloa crus-galli (barnyard grass) plants assessed as inhibition of seedling growth at 100 ug/ml after 65 hr by barnyard cup test; settings: read-out: GI
# [3] = system: Brassica rapa subsp. oleifera; assay: Herbicidal activity against Brassica rapa subsp. oleifera assessed as inhibition of root growth at 1000 ug/ml after 65 hr by rape cup test; settings: read-out: GI
# [4] = system: Brassica rapa subsp. oleifera; assay: Herbicidal activity against Brassica rapa subsp. oleifera assessed as inhibition of root growth at 100 ug/ml after 65 hr by rape cup test; settings: read-out: GI
# [5] = system: Digitaria sanguinalis; assay: Post-emergence herbicidal activity against Digitaria sanguinalis (hairy crabgrass) seedlings assessed as inhibition of plant fresh weight growth at 1500 g/ha applied through spraying under greenhouse conditions; settings: read-out: GI
# [6] = system: Digitaria sanguinalis; assay: Pre-emergence herbicidal activity against Digitaria sanguinalis (hairy crabgrass) assessed as inhibition of plant fresh weight growth at 1500 g/ha applied to soil through spraying under greenhouse conditions; settings: read-out: GI
# [7] = system: Echinochloa crus-galli; assay: Post-emergence herbicidal activity against Echinochloa crus-galli (barnyard grass) seedlings assessed as inhibition of plant fresh weight growth at 1500 g/ha applied through spraying under greenhouse conditions; settings: read-out: GI
# [8] = system: Echinochloa crus-galli; assay: Pre-emergence herbicidal activity against Echinochloa crus-galli (barnyard grass) assessed as inhibition of plant fresh weight growth at 1500 g/ha applied to soil through spraying under greenhouse conditions; settings: read-out: GI
# [9] = system: Amaranthus retroflexus; assay: Post-emergence herbicidal activity against Amaranthus retroflexus seedlings assessed as inhibition of plant fresh weight growth at 1500 g/ha applied through spraying under greenhouse conditions; settings: read-out: GI
# [10] = system: Amaranthus retroflexus; assay: Pre-emergence herbicidal activity against Amaranthus retroflexusassessed as inhibition of plant fresh weight growth at 1500 g/ha applied to soil through spraying under greenhouse conditions; settings: read-out: GI
# [11] = system: Brassica rapa subsp. oleifera; assay: Post-emergence herbicidal activity against Brassica rapa subsp. oleifera seedlings assessed as inhibition of plant fresh weight growth at 1500 g/ha applied through spraying under greenhouse conditions; settings: read-out: GI
# [12] = system: Paraixeris denticulata; assay: Herbicidal activity against Paraixeris denticulata assessed as germination rate at 1000 ug/ml measured on fourth day post dose (reference value: 100%)
# [13] = system: Brassica rapa subsp. oleifera; assay: Pre-emergence herbicidal activity against Brassica rapa subsp. oleifera assessed as inhibition of plant fresh weight growth at 1500 g/ha applied to soil through spraying under greenhouse conditions; settings: read-out: GI
# [14] = system: Paraixeris denticulata; assay: Herbicidal activity against Paraixeris denticulata assessed as germination rate at 1000 ug/ml measured on third day post dose (reference value: 97.4 +/- 0.6%)
# [15] = system: Paraixeris denticulata; assay: Herbicidal activity against Paraixeris denticulata assessed as germination rate at 1000 ug/ml measured on second day post dose (reference value: 76.7 +/- 0.3%)
# [16] = system: Paraixeris denticulata; assay: Herbicidal activity against Paraixeris denticulata assessed as germination rate at 1000 ug/ml measured on first day post dose (reference value: 30.8 +/- 1.2%)
# [17] = system: Echinochloa crus-galli; assay: Herbicidal activity against Echinochloa crus-galli (barnyard grass) plants assessed as germination rate at 1000 ug/ml measured on second day post dose (reference value: 100%)
# [18] = system: Echinochloa crus-galli; assay: Herbicidal activity against Echinochloa crus-galli (barnyard grass) plants assessed as germination rate at 1000 ug/ml measured on first day post dose (reference value: 49.1 +/- 1.6%)
# [19] = system: Brassica rapa subsp. oleifera; assay: Herbicidal activity against Brassica rapa subsp. oleifera assessed as inhibition of root growth at 10 ug/ml after 65 hr by rape cup test; settings: read-out: GI
# [20] = system: Digitaria sanguinalis; assay: Herbicidal activity against Digitaria sanguinalis (hairy crabgrass) assessed as germination rate at 1000 ug/ml measured on third day post dose (reference value: 100%)
# [21] = system: Digitaria sanguinalis; assay: Herbicidal activity against Digitaria sanguinalis (hairy crabgrass) assessed as germination rate at 1000 ug/ml measured on second day post dose (reference value: 100%)
# [22] = system: Digitaria sanguinalis; assay: Herbicidal activity against Digitaria sanguinalis (hairy crabgrass) assessed as germination rate at 1000 ug/ml measured on first day post dose (reference value: 0%)
# [23] = system: Digitaria sanguinalis; assay: Post-emergence herbicidal activity against Digitaria sanguinalis (hairy crabgrass) seedlings assessed as inhibition of plant fresh weight growth at 150 g/ha applied through spraying under greenhouse conditions; settings: read-out: GI
# [24] = system: Digitaria sanguinalis; assay: Pre-emergence herbicidal activity against Digitaria sanguinalis (hairy crabgrass) assessed as inhibition of plant fresh weight growth at 150 g/ha applied to soil through spraying under greenhouse conditions; settings: read-out: GI
# [25] = system: Echinochloa crus-galli; assay: Post-emergence herbicidal activity against Echinochloa crus-galli (barnyard grass) seedlings assessed as inhibition of plant fresh weight growth at 150 g/ha applied through spraying under greenhouse conditions; settings: read-out: GI
# [26] = system: Echinochloa crus-galli; assay: Pre-emergence herbicidal activity against Echinochloa crus-galli (barnyard grass) assessed as inhibition of plant fresh weight growth at 150 g/ha applied to soil through spraying under greenhouse conditions; settings: read-out: GI
# [27] = system: Amaranthus retroflexus; assay: Post-emergence herbicidal activity against Amaranthus retroflexus seedlings assessed as inhibition of plant fresh weight growth at 150 g/ha applied through spraying under greenhouse conditions; settings: read-out: GI
# [28] = system: Amaranthus retroflexus; assay: Pre-emergence herbicidal activity against Amaranthus retroflexus assessed as inhibition of plant fresh weight growth at 150 g/ha applied to soil through spraying under greenhouse conditions; settings: read-out: GI
# [29] = system: Brassica rapa subsp. oleifera; assay: Post-emergence herbicidal activity against Brassica rapa subsp. oleifera seedlings assessed as inhibition of plant fresh weight growth at 150 g/ha applied through spraying under greenhouse conditions; settings: read-out: GI
# [30] = system: Brassica rapa subsp. oleifera; assay: Pre-emergence herbicidal activity against Brassica rapa subsp. oleifera assessed as inhibition of plant fresh weight growth at 150 g/ha applied to soil through spraying under greenhouse conditions; settings: read-out: GI
SMILES,inhibition of growth at 1000 µg/mL [1],inhibition of growth at 100 µg/mL [2],inhibition of growth at 1000 µg/mL [3],inhibition of growth at 100 µg/mL [4],Activity [12],Activity [14],Activity [15],Activity [16],Activity [17],Activity [18],inhibition of growth at 10 µg/mL [19],Activity [20],Activity [21],Activity [22],further results
COc1cc(OC)c2c(c1)O/C(=C\c1ccccc1F)C2=O,45%,15%,86.8%,74.7%,100%,76.7%,58.9%,17.8%,100%,11.4%,,,,,inhibition of growth at 1500 g/ha [5]: 0%; inhibition of growth at 1500 g/ha [6]: 0%; inhibition of growth at 1500 g/ha [7]: 6.5%; inhibition of growth at 1500 g/ha [8]: 15%; inhibition of growth at 1500 g/ha [9]: 40.1%; inhibition of growth at 1500 g/ha [10]: 10%; inhibition of growth at 1500 g/ha [11]: 0%; inhibition of growth at 1500 g/ha [13]: 0%
COc1cc(OC)c2c(c1)O/C(=C\c1ccc(F)cc1)C2=O,5%,0%,74.2%,64.2%,,,,,,,50.6%,,,,
COc1cc(/C=C2\Oc3cc(O)cc(O)c3C2=O)ccc1O,23.3%,9.5%,98.4%,63.3%,100%,94.9%,82.4%,14.3%,100%,16.9%,,100%,35.1%,0%,
COc1cc(OC)c2c(c1)O/C(=C\c1ccco1)C2=O,42.5%,7.8%,94.9%,75.9%,,,,,100%,23.7%,31.6%,100%,35%,0%,
CCOc1cc(OCC)c2c(c1)O/C(=C\c1ccccc1)C2=O,27.6%,8%,71.3%,37.5%,,,,,100%,17.7%,,,,,
CCOc1cc(OCC)c2c(c1)O/C(=C\c1ccc(OCc3ccccc3)c(OC)c1)C2=O,26.7%,15%,72.6%,79.2%,,,,,,,,,,,inhibition of growth at 1500 g/ha [5]: 5%; inhibition of growth at 1500 g/ha [6]: 10%; inhibition of growth at 1500 g/ha [7]: 7.9%; inhibition of growth at 1500 g/ha [8]: 0%; inhibition of growth at 1500 g/ha [9]: 0%; inhibition of growth at 1500 g/ha [10]: 5%; inhibition of growth at 1500 g/ha [11]: 0%; inhibition of growth at 1500 g/ha [13]: 0%
COc1cc2c(c(OC)c1C)C(=O)/C(=C/c1ccccc1)O2,33.5%,15%,82.6%,30.5%,,,,,100%,19.5%,,100%,68.6%,0%,
COc1cc(/C=C2\Oc3cc(OC)c(C)c(OC)c3C2=O)ccc1OCc1ccccc1,45.1%,19%,99.5%,71.7%,100%,91.7%,65.5%,12.1%,100%,16.3%,42.6%,100%,38.9%,0%,
CN(C)c1ccc(/C=C2\Oc3cc(O)cc(O)c3C2=O)cc1,46.6%,3%,78.9%,54.2%,,,,,100%,16.9%,,,27.8%,0%,
COc1cc(OC)c2c(c1)O/C(=C\c1ccccc1)C2=O,20%,0%,91.4%,88.5%,100%,95%,75.7%,2.5%,100%,18.8%,81.3%,100%,22.5%,0%,inhibition of growth at 1500 g/ha [5]: 0%; inhibition of growth at 1500 g/ha [6]: 0%; inhibition of growth at 1500 g/ha [7]: 0%; inhibition of growth at 1500 g/ha [8]: 10%; inhibition of growth at 1500 g/ha [9]: 42.2%; inhibition of growth at 1500 g/ha [10]: 0%; inhibition of growth at 1500 g/ha [11]: 15%; inhibition of growth at 1500 g/ha [13]: 0%
O=C1/C(=C/c2ccccc2)Oc2cc(O)cc(O)c21,49.3%,19.9%,96.5%,50.1%,,,,,100%,15.3%,,100%,,,
"COc1ccc(/C=C2\Oc3cc(OC)cc(OC)c3C2=O)cc1 [4,4',6-TRIMETHOXY-AURONE]",62.8%,18.6%,87.8%,72.3%,,,,,,,63.2%,,,,
"COc1cc(OC)c2c(c1)O/C(=C\c1ccc(OC)c(OC)c1)C2=O [4,6,3',4'-TETRAMETHOXYAURONE]",61.3%,0.9%,77.9%,5.3%,100%,100%,69.6%,20%,100%,13%,,100%,41.4%,0%,
CS(=O)(=O)c1ccc(C(=O)C2C(=O)CCCC2=O)c([N+](=O)[O-])c1 [MESOTRIONE],96.1%,90.5%,93.4%,89.7%,,,,,,,80.3%,,,,inhibition of growth at 150 g/ha [23]: 100%; inhibition of growth at 150 g/ha [24]: 100%; inhibition of growth at 150 g/ha [25]: 86.7%; inhibition of growth at 150 g/ha [26]: 92.5%; inhibition of growth at 150 g/ha [27]: 100%; inhibition of growth at 150 g/ha [28]: 97.9%; inhibition of growth at 150 g/ha [29]: 100%; inhibition of growth at 150 g/ha [30]: 97.8%
CCc1cccc(C)c1N(C(=O)CCl)C(C)COC (stereo not drawn) [METOLACHOR],,,,,,,,,,,,,,,inhibition of growth at 1500 g/ha [5]: 46.3%; inhibition of growth at 1500 g/ha [6]: 100%; inhibition of growth at 1500 g/ha [7]: 54%; inhibition of growth at 1500 g/ha [8]: 100%; inhibition of growth at 1500 g/ha [9]: 66.4%; inhibition of growth at 1500 g/ha [10]: 100%; inhibition of growth at 1500 g/ha [11]: 100%; inhibition of growth at 1500 g/ha [13]: 88.3%
